Experimental data taken from patent US5234949A (Academic Pharmaceuticals, Inc., priority 1992, dated 1993).
Read-outs that look alike come from different tables or passages of the source.

Experiments:
[1] = tested on: Coronary Occlusion (Rat); assay: Antiarrhythmic effects following coronary occlusion; assay type: in vivo
[2] = administered intravenously; cited from earlier work
[3] = tested on: dog; conditions: in vivo; cited from earlier work

Compound | solution behaviour (0.05 to 0.1M acetate buffer, pH 3.5 to 3.8, about 25 to 50 mg/ml, room temperature, extended period) | solution behaviour (0.2M acetate buffer, same pH range, after cooling) | solution behaviour (pH above 4.0, room temperature) | solution behaviour (phosphate buffer, 0.1M, on cooling) | dose-dependent suppression of arrhythmias vs saline control group [1] | onset of action; hemodynamic and electrophysiological effect [2] | blood pressure effect [3] | cardiac effect [3]
CCCCc1oc2ccccc2c1C(=O)c1cc(I)c(OCCN(CC)CC)c(I)c1 [Amiodarone, 2-n-butyl-3-(3,5-diiodo-4-β-N-diethylaminoethoxybenzoyl) benzofuran] | remains in solution | formed a gel after cooling | a gel formed at room temperature | gel formation occurred at all pH's | significantly different than that seen with the saline control group | rapid onset of action causing profound hemodynamic and electrophysiological effect | – | –
Tween-80 | – | – | – | – | – | – | causes hypotension | potent cardiac depressant
